Here are results for 14 compounds from US8883799B2, “Tricyclic PI3K inhibitor compounds and methods of use” (Genentech, Inc., priority 2010, dated 2014).

Structures are written as SMILES.

The target of the assay is T1, p110 alpha PI3K (Homo sapiens, UniProt P42336).
T1 construct: purchased Upstate Cell Signaling Solutions, Charlottesville, Va
Kind of assay: p110α (alpha) PI3K binding assay (fluorescence polarization; alternatively radiometric). The conditions noted are these: read-out: IC50, Ki (μmole) PI3K, p110 alpha binding assay. As to the method:
Binding Assays: Initial polarization experiments were performed on an Analyst HT® 96-384 (Molecular Devices Corp, Sunnyvale, Calif.). […] After an incubation time of 30 minutes at room temperature, the reactions were stopped by the addition of GRP-1 and PIP3-TAMRA probe (Echelon-Inc., Salt Lake City, Utah) 100 nM and 5 nM final concentrations respectively. Read with standard cut-off filters for the rhodamine fluorophore (λex=530 nm; λem=590 nm) in 384-well black low volume Proxiplates® (PerkinElmer, Wellesley, Mass.) Fluorescence polarization values were plotted as a function of the protein concentration, and the EC50 values were obtained by fitting the data to a 4-parameter equation using KaleidaGraph® software (Synergy software, Reading, Pa.). This experiment also establishes the appropriate protein concentration to use in subsequent competition experiments with inhibitors.
After an incubation time of 30 minutes at room temperature, the reactions were stopped by the addition of GRP-1 and PIP3-TAMRA probe (Echelon-Inc., Salt Lake City, Utah) 100 nM and 5 nM final concentrations respectively. Read with standard cut-off filters for the rhodamine fluorophore (λex=530 nm; λem=590 nm) in 384-well black low volume PROXIPLATES® (PerkinElmer, Wellesley, Mass.) Fluorescence polarization values were plotted as a function of the antagonist concentration, and the IC50 values were obtained by fitting the data to a 4-parameter equation in Assay Explorer® software (MDL, San Ramon, Calif.).
The Formula I compound was serially diluted in 100% DMSO. The kinase reaction was incubated for 1 hr at room temperature, and the reaction was terminated by the addition of PBS. IC50 values were subsequently determined using sigmoidal dose-response curve fit (variable slope).
For orientation: Polarisation of emitted light reports the rotation of a fluorescent probe.

T1 sequence (P42336 whole entry): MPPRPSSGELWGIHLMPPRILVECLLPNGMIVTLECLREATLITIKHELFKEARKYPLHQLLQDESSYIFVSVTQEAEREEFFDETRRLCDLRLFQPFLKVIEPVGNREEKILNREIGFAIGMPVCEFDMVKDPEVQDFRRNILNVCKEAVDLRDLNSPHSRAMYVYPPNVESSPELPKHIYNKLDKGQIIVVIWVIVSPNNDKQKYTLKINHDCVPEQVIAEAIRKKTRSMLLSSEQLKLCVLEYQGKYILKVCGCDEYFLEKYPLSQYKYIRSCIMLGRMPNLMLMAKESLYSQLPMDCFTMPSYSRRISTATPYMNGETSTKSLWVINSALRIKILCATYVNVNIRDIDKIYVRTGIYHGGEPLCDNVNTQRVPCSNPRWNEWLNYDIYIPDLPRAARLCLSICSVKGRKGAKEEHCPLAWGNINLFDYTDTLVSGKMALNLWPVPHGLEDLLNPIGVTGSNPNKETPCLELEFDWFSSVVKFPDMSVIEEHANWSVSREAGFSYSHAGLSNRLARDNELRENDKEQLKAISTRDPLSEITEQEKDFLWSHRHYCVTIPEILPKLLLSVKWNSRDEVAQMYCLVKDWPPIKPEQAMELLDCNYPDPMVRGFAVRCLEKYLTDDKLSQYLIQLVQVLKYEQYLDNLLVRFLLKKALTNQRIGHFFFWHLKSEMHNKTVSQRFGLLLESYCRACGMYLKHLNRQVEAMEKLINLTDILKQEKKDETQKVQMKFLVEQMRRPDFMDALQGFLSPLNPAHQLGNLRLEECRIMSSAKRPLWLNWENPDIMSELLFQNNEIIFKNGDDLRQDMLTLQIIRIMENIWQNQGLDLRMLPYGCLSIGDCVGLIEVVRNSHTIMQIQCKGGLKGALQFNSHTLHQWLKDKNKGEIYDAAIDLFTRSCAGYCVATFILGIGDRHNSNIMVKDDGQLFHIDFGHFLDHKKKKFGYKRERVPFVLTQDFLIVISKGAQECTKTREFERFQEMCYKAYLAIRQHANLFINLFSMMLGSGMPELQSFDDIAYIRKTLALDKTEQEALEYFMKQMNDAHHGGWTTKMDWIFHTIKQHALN
T1 sequence (P27986 whole entry partner): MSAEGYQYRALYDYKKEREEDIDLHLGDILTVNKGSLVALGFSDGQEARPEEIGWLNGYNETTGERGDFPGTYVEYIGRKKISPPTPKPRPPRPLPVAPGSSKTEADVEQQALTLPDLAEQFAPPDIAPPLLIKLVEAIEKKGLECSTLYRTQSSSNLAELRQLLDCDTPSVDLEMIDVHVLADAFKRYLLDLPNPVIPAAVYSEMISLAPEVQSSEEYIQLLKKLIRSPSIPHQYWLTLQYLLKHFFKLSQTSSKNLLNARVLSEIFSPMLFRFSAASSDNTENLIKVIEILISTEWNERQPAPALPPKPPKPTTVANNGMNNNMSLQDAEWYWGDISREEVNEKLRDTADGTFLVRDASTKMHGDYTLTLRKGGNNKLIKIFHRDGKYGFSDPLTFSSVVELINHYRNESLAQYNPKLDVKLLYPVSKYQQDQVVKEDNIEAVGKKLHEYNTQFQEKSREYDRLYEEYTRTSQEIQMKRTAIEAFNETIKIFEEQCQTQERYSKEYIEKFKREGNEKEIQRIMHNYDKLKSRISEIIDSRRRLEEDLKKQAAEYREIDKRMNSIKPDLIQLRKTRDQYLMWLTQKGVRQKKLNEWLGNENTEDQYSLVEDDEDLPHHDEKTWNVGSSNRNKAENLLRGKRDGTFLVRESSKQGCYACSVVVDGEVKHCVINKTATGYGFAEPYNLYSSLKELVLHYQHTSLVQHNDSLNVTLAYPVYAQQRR

What is called IC50 is the concentration needed to halve the response being measured. With `Cn1cc(-c2nc(N3CCOCC3)c3nc4n(c3n2)CCOC4(C)C)cn1` [Compound 127, 6,6-dimethyl-2-(1-methyl-1H-pyrazol-4-yl)-4-morpholino-8,9-dihydro-6H-[1,4]oxazino[3,4-e]purine], the IC50 is greater than 695 nM.

Consider `CC1(C)OCCn2c1nc1c(N3CCOCC3)nc(-c3ccc4[nH]ncc4c3)nc12` [Compound 129, 2-(1H-indazol-5-yl)-6,6-dimethyl-4-morpholino-8,9-dihydro-6H-[1,4]oxazino[3,4-e]purine], for which the IC50 was greater than 695 nM.

On to `CN1CCN(c2cc(-c3nc(N4CCOCC4)c4nc5n(c4n3)CCOC5(C)C)ccn2)CC1` [Compound 130, 6,6-dimethyl-2-(2-(4-methylpiperazin-1-yl)yridine-4-yl)-4-morpholino-8,9-dihydro-6H-[1,4]oxazino[3,4-e]purine], for which the IC50 was greater than 695 nM. In the case of `CC1(C)OCCn2c1nc1c(N3CCOCC3)nc(-c3ccc(N4CCOCC4)nc3)nc12` [Compound 132, 6,6-dimethyl-4-morpholino-2-(6-morpholinopyridin-3-yl)-8,9-dihydro-6H-[1,4]oxazino[3,4-e]purine], the 50% inhibitory concentration (IC50) is greater than 695 nM. Turning to `CC1(C)OCCn2c1nc1c(N3CCOCC3)nc(-c3cnn(Cc4ccccc4)c3)nc12` [Compound 133, 2-(1-benzyl-1H-pyrazol-4-yl)-6,6-dimethyl-4-morpholino-8,9-dihydro-6H-[1,4]oxazino[3,4-e]purine], the half-maximal inhibitory concentration (IC50) was greater than 695 nM.

As for `CC(C)Oc1ncccc1-c1nc(N2CCOCC2)c2nc3n(c2n1)CCOC3(C)C` [Compound 134, 2-(2-isopropoxypyridin-3-yl)-6,6-dimethyl-4-morpholino-8,9-dihydro-6H-[1,4]oxazino[3,4-e]purine], the IC50 was greater than 695 nM. With `CC(=O)Nc1ccccc1-c1nc(N2CCOCC2)c2nc3n(c2n1)CCOC3(C)C` [Compound 135, N-(2-(6,6-dimethyl-4-morpholino-8,9-dihydro-6H-[1,4]oxazino[3,4-e]purin-2-yl)phenyl)acetamide], the IC50 was greater than 695 nM.

`Cc1n[nH]c(C)c1-c1nc(N2CCOCC2)c2nc3n(c2n1)CCOC3(C)C` [Compound 136, 2-(3,5-dimethyl-1H-pyrazol-4-yl)-6,6-dimethyl-4-morpholino-8,9-dihydro-6H-[1,4]oxazino[3,4-e]purine]: the IC50 is greater than 695 nM. The figure for `CC1(C)OCCn2c1nc1c(N3CCOCC3)nc(-c3ccc(O)nc3)nc12` [Compound 137, 5-(6,6-dimethyl-4-morpholino-8,9-dihydro-6H-[1,4]oxazino[3,4-e]purin-2-yl)pyridine-2-ol] is greater than 695 nM; for `CCn1cc(-c2nc(N3CCOCC3)c3nc4n(c3n2)CCOC4(C)C)cn1` [Compound 141, 2-(1-ethyl-1H-pyrazol-4-yl)-6,6-dimethyl-4-morpholino-8,9-dihydro-6H-[1,4]oxazino[3,4-e]purine] it is greater than 695 nM. The figure for `CN(C)C(=O)c1ccc(-c2nc(N3CCOCC3)c3nc4n(c3n2)CCOC4(C)C)cc1` [Compound 142, 4-(6,6-dimethyl-4-morpholino-8,9-dihydro-6H-[1,4]oxazino[3,4-e]purin-2-yl)-N,N-dimethylbenzamide] is greater than 695 nM; for `CN(C(=O)OC(C)(C)C)c1ccc(-c2nc(N3CCOCC3)c3nc4n(c3n2)CCOC4(C)C)cc1` [Compound 143, tert-butyl 4-(6,6-dimethyl-4-morpholino-8,9-dihydro-6H-[1,4]oxazino[3,4-e]purin-2-yl)phenyl(methyl)carbamate] it is greater than 695 nM. The figure for `CC1(C)OCCn2c1nc1c(N3CCOCC3)nc(-c3cccc(CC#N)c3)nc12` [Compound 144, 2-(3-(6,6-dimethyl-4-morpholino-8,9-dihydro-6H-[1,4]oxazino[3,4-e]purin-2-yl)phenyl)acetonitrile] is greater than 695 nM.

Consider `CC1(C)OCCn2c1nc1c(N3CCOCC3)nc(-c3cccc(N4CCOCC4)c3)nc12` [Compound 145, 6,6-dimethyl-4-morpholino-2-(3-morpholinophenyl)-8,9-dihydro-6H-[1,4]oxazino[3,4-e]purine], for which the IC50 was greater than 695 nM.
